Reference: patent publication US12077503B2, “Substituted cyclic amides and their use as herbicides” (FMC CORPORATION, priority 2015, dated 2024)

Key:
Assay type in all cases: in vivo
[1] = test system: barnyardgrass (Echinochloa crus-galli); assay: Test G Pre-Emergence Protocol; details: Echinochloa crus-galli, pre-emergence, 312 h, evaluated after 13 days; for pest or weed control at 15.625 g/ha: 15.625 g ai/ha; for pest or weed control at 15.625 g/ha / pest or weed control at 250 g/ha: read-out: Barnyardgrass damage rating (100=total damage to plant; 0=no damage to plant); for pest or weed control at 62.5 g/ha: 62.5 g ai/ha, 100=total damage to plant, 0=no damage to plant, read-out: Barnyardgrass damage rating; for pest or weed control at 250 g/ha: 250 g ai/ha
Summary of the method: (§1)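 Herbicidal effect was rated 13 days post-application on a scale where 100 equals total damage. Spraying took place the day after sowing, using 15.625, 62.5 or 250 g/ha of compound in a 50:50 acetone/water solution with 0.5% Tween 20.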

corn (Zea mays) [2] = assay: Test G Pre-Emergence Protocol; details: Zea mays, pre-emergence, 312 h, evaluated after 13 days; for plant injury at 15.625 g/ha: 15.625 g ai/ha; for plant injury at 15.625 g/ha / plant injury at 250 g/ha: read-out: Corn damage rating (100=total damage to plant; 0=no damage to plant); for plant injury at 62.5 g/ha: 62.5 g ai/ha, 100=total damage to plant, 0=no damage to plant, read-out: Corn damage rating; for plant injury at 250 g/ha: 250 g ai/ha
Summary of the method: as §1

[3] = test system: giant foxtail (Setaria faberi); assay: Test G Pre-Emergence Protocol; details: Setaria faberi, pre-emergence, 312 h, evaluated after 13 days; for pest or weed control at 15.625 g/ha: 15.625 g ai/ha; for pest or weed control at 15.625 g/ha / pest or weed control at 250 g/ha: read-out: Foxtail, Giant damage rating (100=total damage to plant; 0=no damage to plant); for pest or weed control at 62.5 g/ha: 62.5 g ai/ha, 100=total damage to plant, 0=no damage to plant, read-out: Foxtail, Giant damage rating; for pest or weed control at 250 g/ha: 250 g ai/ha
Summary of the method: as §1

[4] = test system: ivy-leaved morning glory (Ipomoea hederacea); assay: Test G Pre-Emergence Protocol; details: Ipomoea, pre-emergence, 312 h, evaluated after 13 days; for pest or weed control at 15.625 g/ha: 15.625 g ai/ha; for pest or weed control at 15.625 g/ha / pest or weed control at 250 g/ha: read-out: Morningglory, Ivy-leaved damage rating (100=total damage to plant; 0=no damage to plant); for pest or weed control at 62.5 g/ha: 62.5 g ai/ha, 100=total damage to plant, 0=no damage to plant, read-out: Morningglory, Ivy-leaved damage rating; for pest or weed control at 250 g/ha: 250 g ai/ha
Summary of the method: as §1

[5] = test system: redroot pigweed (Amaranthus retroflexus); assay: Test G Pre-Emergence Protocol; details: Amaranthus retroflexus, pre-emergence, 312 h, evaluated after 13 days; for pest or weed control at 15.625 g/ha: 15.625 g ai/ha; for pest or weed control at 15.625 g/ha / pest or weed control at 250 g/ha: read-out: Pigweed, Redroot damage rating (100=total damage to plant; 0=no damage to plant); for pest or weed control at 62.5 g/ha: 62.5 g ai/ha, 100=total damage to plant, 0=no damage to plant, read-out: Pigweed, Redroot damage rating; for pest or weed control at 250 g/ha: 250 g ai/ha
Summary of the method: as §1

[6] = test system: velvetleaf (Abutilon theophrasti); assay: Test G Pre-Emergence Protocol; details: Abutilon theophrasti, pre-emergence, 312 h, evaluated after 13 days; for pest or weed control at 15.625 g/ha: 15.625 g ai/ha; for pest or weed control at 15.625 g/ha / pest or weed control at 250 g/ha: read-out: Velvetleaf damage rating (100=total damage to plant; 0=no damage to plant); for pest or weed control at 62.5 g/ha: 62.5 g ai/ha, 100=total damage to plant, 0=no damage to plant, read-out: Velvetleaf damage rating; for pest or weed control at 250 g/ha: 250 g ai/ha
Summary of the method: as §1

[7] = test system: barnyardgrass (Echinochloa crus-galli); assay: Test G Post-Emergence Protocol; details: Echinochloa crus-galli, post-emergence, 312 h, read-out: Barnyardgrass damage rating; for pest or weed control at 15.625 g/ha: 15.625 g ai/ha, evaluated after 13 days (100=total damage to plant; 0=no damage to plant); for pest or weed control at 62.5 g/ha: 62.5 g ai/ha; for pest or weed control at 62.5 g/ha / pest or weed control at 250 g/ha: evaluated after 13 days, 100=total damage to plant, 0=no damage to plant; for pest or weed control at 250 g/ha: 250 g ai/ha
Summary of the method: (§2)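 Foliar application was made 8 days after sowing, using an aqueous spray of the active in acetone/water (50:50) with 0.5% Tween 20, at doses of 15.625, 62.5 or 250 g/ha. Injury was assessed 13 days later, where 100 meant the plant was fully damaged.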

corn (Zea mays) [8] = assay: Test G Post-Emergence Protocol; details: Zea mays, post-emergence, 312 h, read-out: Corn damage rating; for plant injury at 15.625 g/ha: 15.625 g ai/ha, evaluated after 13 days (100=total damage to plant; 0=no damage to plant); for plant injury at 62.5 g/ha: 62.5 g ai/ha; for plant injury at 62.5 g/ha / plant injury at 250 g/ha: evaluated after 13 days, 100=total damage to plant, 0=no damage to plant; for plant injury at 250 g/ha: 250 g ai/ha
Summary of the method: as §2

[9] = test system: giant foxtail (Setaria faberi); assay: Test G Post-Emergence Protocol; details: Setaria faberi, post-emergence, 312 h, read-out: Foxtail, Giant damage rating; for pest or weed control at 15.625 g/ha: 15.625 g ai/ha, evaluated after 13 days (100=total damage to plant; 0=no damage to plant); for pest or weed control at 62.5 g/ha: 62.5 g ai/ha; for pest or weed control at 62.5 g/ha / pest or weed control at 250 g/ha: evaluated after 13 days, 100=total damage to plant, 0=no damage to plant; for pest or weed control at 250 g/ha: 250 g ai/ha
Summary of the method: as §2

[10] = test system: ivy-leaved morning glory (Ipomoea hederacea); assay: Test G Post-Emergence Protocol; details: Ipomoea, post-emergence, 312 h, read-out: Morningglory, Ivy-leaved damage rating; for pest or weed control at 15.625 g/ha: 15.625 g ai/ha, evaluated after 13 days (100=total damage to plant; 0=no damage to plant); for pest or weed control at 62.5 g/ha: 62.5 g ai/ha; for pest or weed control at 62.5 g/ha / pest or weed control at 250 g/ha: evaluated after 13 days, 100=total damage to plant, 0=no damage to plant; for pest or weed control at 250 g/ha: 250 g ai/ha
Summary of the method: as §2

[11] = test system: redroot pigweed (Amaranthus retroflexus); assay: Test G Post-Emergence Protocol; details: Amaranthus retroflexus, post-emergence, 312 h, read-out: Pigweed, Redroot damage rating; for pest or weed control at 15.625 g/ha: 15.625 g ai/ha, evaluated after 13 days (100=total damage to plant; 0=no damage to plant); for pest or weed control at 62.5 g/ha: 62.5 g ai/ha; for pest or weed control at 62.5 g/ha / pest or weed control at 250 g/ha: evaluated after 13 days, 100=total damage to plant, 0=no damage to plant; for pest or weed control at 250 g/ha: 250 g ai/ha
Summary of the method: as §2

[12] = test system: velvetleaf (Abutilon theophrasti); assay: Test G Post-Emergence Protocol; details: Abutilon theophrasti, post-emergence, 312 h, read-out: Velvetleaf damage rating; for pest or weed control at 15.625 g/ha: 15.625 g ai/ha, evaluated after 13 days (100=total damage to plant; 0=no damage to plant); for pest or weed control at 62.5 g/ha: 62.5 g ai/ha; for pest or weed control at 62.5 g/ha / pest or weed control at 250 g/ha: evaluated after 13 days, 100=total damage to plant, 0=no damage to plant; for pest or weed control at 250 g/ha: 250 g ai/ha
Summary of the method: as §2

Row | SMILES | pest or weed control at 15.625 g/ha [1] | pest or weed control at 62.5 g/ha [1] | pest or weed control at 250 g/ha [1] | plant injury at 15.625 g/ha (corn (Zea mays) [2]) | plant injury at 62.5 g/ha (corn (Zea mays) [2]) | plant injury at 250 g/ha (corn (Zea mays) [2]) | pest or weed control at 15.625 g/ha [3] | pest or weed control at 62.5 g/ha [3] | pest or weed control at 250 g/ha [3] | pest or weed control at 15.625 g/ha [4] | pest or weed control at 62.5 g/ha [4] | pest or weed control at 250 g/ha [4] | pest or weed control at 15.625 g/ha [5] | pest or weed control at 62.5 g/ha [5] | pest or weed control at 250 g/ha [5] | pest or weed control at 15.625 g/ha [6] | pest or weed control at 62.5 g/ha [6] | pest or weed control at 250 g/ha [6] | pest or weed control at 15.625 g/ha [7] | pest or weed control at 62.5 g/ha [7] | other results
1 | CN1CC(c2cc(C#N)cc(OC(F)(F)F)c2)C(C(=O)Nc2cccc(F)c2F)C1=O (stereo not drawn) [Compound 1694] | 0% | 0% | 0% | 0% | 0% | 0% | 0% | 0% | 0% | 0% | 0% | 0% | 0% | 0% | 0% | 0% | 0% | 0% | 0% | 0% | pest or weed control at 250 g/ha [7]: 0%; plant injury at 15.625 g/ha (corn (Zea mays) [8]): 0%; plant injury at 62.5 g/ha (corn (Zea mays) [8]): 0%; plant injury at 250 g/ha (corn (Zea mays) [8]): 0%; pest or weed control at 15.625 g/ha [9]: 0%; pest or weed control at 62.5 g/ha [9]: 0%; pest or weed control at 250 g/ha [9]: 0%; pest or weed control at 15.625 g/ha [10]: 0%; pest or weed control at 62.5 g/ha [10]: 0%; pest or weed control at 250 g/ha [10]: 0%; pest or weed control at 15.625 g/ha [11]: 0%; pest or weed control at 62.5 g/ha [11]: 0%; pest or weed control at 250 g/ha [11]: 0%; pest or weed control at 15.625 g/ha [12]: 0%; pest or weed control at 62.5 g/ha [12]: 0%; pest or weed control at 250 g/ha [12]: 0%
2 | CCOc1cc(C2CN(C)C(=O)C2C(=O)Nc2cccc(F)c2F)cc(C(F)(F)F)c1 (stereo not drawn) [Compound 1696] | 10% | 70% | 80% | 0% | 40% | 50% | 60% | 80% | 90% | 10% | 10% | 20% | 20% | 0% | 20% | 10% | 0% | 0% | 40% | 70% | pest or weed control at 250 g/ha [7]: 80%; plant injury at 15.625 g/ha (corn (Zea mays) [8]): 50%; plant injury at 62.5 g/ha (corn (Zea mays) [8]): 70%; plant injury at 250 g/ha (corn (Zea mays) [8]): 70%; pest or weed control at 15.625 g/ha [9]: 70%; pest or weed control at 62.5 g/ha [9]: 80%; pest or weed control at 250 g/ha [9]: 80%; pest or weed control at 15.625 g/ha [10]: 20%; pest or weed control at 62.5 g/ha [10]: 60%; pest or weed control at 250 g/ha [10]: 60%; pest or weed control at 15.625 g/ha [11]: 70%; pest or weed control at 62.5 g/ha [11]: 50%; pest or weed control at 250 g/ha [11]: 60%; pest or weed control at 15.625 g/ha [12]: 0%; pest or weed control at 62.5 g/ha [12]: 0%; pest or weed control at 250 g/ha [12]: 10%
